Reference: ChEMBL document CHEMBL1139584 (Bioorg Med Chem Lett, 2005)
pEC50, pKi: −log10 of the molar value.

Experiments:
[1] = biological target: Somatostatin receptor type 1 (Homo sapiens, UniProt P30872); experiment: Binding affinity against human sst1 receptor at a dose of 10 uM
[2] = biological target: Somatostatin receptor type 4 (Homo sapiens, UniProt P31391); experiment: Binding affinity against human sst4 receptor at a dose of 10 uM
[3] = biological target: T1, Somatostatin receptor type 5 (Homo sapiens, UniProt P35346); experiment: Inhibitory constant against human sst5 receptor at a dose of 10 uM
[4] = biological target: T2, Somatostatin receptor type 2 (Homo sapiens, UniProt P30874); experiment: Inhibitory constant against human sst2 receptor at a dose of 10 uM
[5] = biological target: Somatostatin receptor type 3 (Homo sapiens, UniProt P32745); experiment: Binding affinity against human sst3 receptor at 10 uM
[6] = biological target: T2, Somatostatin receptor type 2; experiment: Inhibition of forskolin-induced cAMP accumulation in CHO-K1 cells expressing human sst2 receptor; format: functional, cell-based
[7] = biological target: T1, Somatostatin receptor type 5; experiment: Inhibition of forskolin-induced cAMP accumulation in CHO-K1 cells expressing human sst5 receptor; format: functional, cell-based

T1 sequence (P35346 whole entry): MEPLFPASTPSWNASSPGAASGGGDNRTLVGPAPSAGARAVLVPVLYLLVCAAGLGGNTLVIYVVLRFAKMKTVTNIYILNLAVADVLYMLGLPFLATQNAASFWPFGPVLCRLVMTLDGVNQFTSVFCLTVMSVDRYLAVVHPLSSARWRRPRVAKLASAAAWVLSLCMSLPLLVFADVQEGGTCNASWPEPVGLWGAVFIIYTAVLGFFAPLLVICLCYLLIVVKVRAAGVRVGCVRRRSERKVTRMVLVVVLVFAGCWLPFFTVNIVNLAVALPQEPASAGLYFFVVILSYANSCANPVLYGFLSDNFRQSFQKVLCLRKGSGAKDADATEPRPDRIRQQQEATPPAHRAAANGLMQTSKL
Somatostatin receptor type 4, sequence (P31391 whole entry): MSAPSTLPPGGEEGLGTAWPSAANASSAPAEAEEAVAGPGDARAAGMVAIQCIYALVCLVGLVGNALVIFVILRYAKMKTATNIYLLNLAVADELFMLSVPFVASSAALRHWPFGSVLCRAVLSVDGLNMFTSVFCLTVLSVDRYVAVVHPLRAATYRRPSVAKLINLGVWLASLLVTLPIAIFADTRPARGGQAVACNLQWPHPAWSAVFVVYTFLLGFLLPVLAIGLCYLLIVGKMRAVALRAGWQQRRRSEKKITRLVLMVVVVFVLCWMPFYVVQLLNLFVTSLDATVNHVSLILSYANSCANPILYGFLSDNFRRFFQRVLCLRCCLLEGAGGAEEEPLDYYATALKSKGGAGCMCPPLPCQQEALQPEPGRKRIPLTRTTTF
Somatostatin receptor type 3, sequence (P32745 whole entry): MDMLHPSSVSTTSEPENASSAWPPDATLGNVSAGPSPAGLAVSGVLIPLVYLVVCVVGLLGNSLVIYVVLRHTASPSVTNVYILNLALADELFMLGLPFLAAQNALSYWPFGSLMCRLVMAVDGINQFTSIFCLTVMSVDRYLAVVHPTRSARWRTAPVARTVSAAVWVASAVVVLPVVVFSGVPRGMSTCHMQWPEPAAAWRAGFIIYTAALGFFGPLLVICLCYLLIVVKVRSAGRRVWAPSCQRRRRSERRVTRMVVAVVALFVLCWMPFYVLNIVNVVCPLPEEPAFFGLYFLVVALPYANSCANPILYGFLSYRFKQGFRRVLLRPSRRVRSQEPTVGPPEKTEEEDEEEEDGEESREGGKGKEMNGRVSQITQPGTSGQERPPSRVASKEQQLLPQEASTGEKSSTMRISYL
Somatostatin receptor type 1, sequence (P30872 whole entry): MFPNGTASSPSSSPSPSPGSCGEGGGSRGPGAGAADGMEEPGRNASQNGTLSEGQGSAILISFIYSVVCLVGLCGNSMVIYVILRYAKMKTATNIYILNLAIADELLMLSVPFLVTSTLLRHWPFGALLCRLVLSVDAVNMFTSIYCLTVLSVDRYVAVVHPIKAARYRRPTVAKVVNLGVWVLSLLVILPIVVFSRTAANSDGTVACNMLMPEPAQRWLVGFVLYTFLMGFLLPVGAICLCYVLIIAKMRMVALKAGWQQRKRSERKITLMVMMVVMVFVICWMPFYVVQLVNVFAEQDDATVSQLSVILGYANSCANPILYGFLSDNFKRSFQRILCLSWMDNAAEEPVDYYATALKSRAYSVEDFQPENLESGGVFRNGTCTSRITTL
T2 sequence (P30874 whole entry): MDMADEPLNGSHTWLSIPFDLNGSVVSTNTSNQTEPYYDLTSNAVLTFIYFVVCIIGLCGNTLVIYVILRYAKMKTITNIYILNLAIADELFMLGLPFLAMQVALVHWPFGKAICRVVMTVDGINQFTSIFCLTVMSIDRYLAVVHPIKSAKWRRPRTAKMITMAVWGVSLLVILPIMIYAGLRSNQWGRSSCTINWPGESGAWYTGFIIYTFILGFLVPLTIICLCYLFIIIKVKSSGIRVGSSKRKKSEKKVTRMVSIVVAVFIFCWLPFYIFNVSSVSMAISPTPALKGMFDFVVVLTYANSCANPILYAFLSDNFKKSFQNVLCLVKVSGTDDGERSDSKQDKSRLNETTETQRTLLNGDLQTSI

| SMILES | pKi [1] | pKi [2] | pKi [3] | pKi [4] | pKi [5] | pEC50 [6] | pEC50 [7] |
| --- | --- | --- | --- | --- | --- | --- | --- |
| Cc1cccc2c(CCSc3nnc(-c4ccc5ccccc5n4)n3CCCCN)c[nH]c12 | 6.89 | 6.85 | 8.68 | 8.74 | 7.39 | 7.66 | 7.47 |
| NCCCCn1c(SCCc2c[nH]c3ccccc23)nnc1-c1cnc2ccccc2n1 |  |  | 7.25 | 7.49 |  |  |  |
| NCCCCn1c(SCCc2c[nH]c3ccccc23)nnc1-c1ccc2ccccc2c1 |  |  | 7.57 | 7.00 |  |  |  |
| NCCCCn1c(SCCc2c[nH]c3ccccc23)nnc1-c1cccc2cc[nH]c12 |  |  | 7.19 | 6.66 |  |  |  |
| NCCCCn1c(SCCc2c[nH]c3ccc(Cl)cc23)nnc1-c1ccc2ccccc2n1 |  |  | 8.64 | 8.25 |  | 8.20 | 7.28 |
| CN(C)CCCCn1c(SCCc2c[nH]c3ccccc23)nnc1-c1ccc2ccccc2c1 |  |  | 5.89 | 5.55 |  |  |  |
| NCCCCn1c(SCCc2c[nH]c3cc(F)ccc23)nnc1-c1ccc2ccccc2n1 | 7.24 | 7.13 | 8.77 | 8.57 | 7.00 | 7.85 | 7.36 |
| Cc1cccc2c(C(=O)CCSc3nnc(-c4ccc5ccccc5n4)n3CCCCN)c[nH]c12 | 6.28 | 6.10 | 9.42 | 8.70 | 6.77 | 8.40 | 8.64 |

Results, then the compound that gave them:

| pKi [1] | pKi [2] | pKi [3] | pKi [4] | pKi [5] | pEC50 [6] | pEC50 [7] | SMILES |
| --- | --- | --- | --- | --- | --- | --- | --- |
| 6.74 | 6.89 | 8.08 | 8.40 | 7.01 |  |  | NCCCCn1c(SCCc2c[nH]c3c(Cl)cccc23)nnc1-c1ccc2ccccc2n1 |
|  |  | 7.29 | 6.60 |  |  |  | NCCCCn1c(SCCc2c[nH]c3ccccc23)nnc1-c1cccc(Br)c1 |
|  |  | 8.03 | 7.64 |  |  |  | Cc1cccc2c(C(=O)C(C)(C)CSc3nnc(-c4ccc5ccccc5n4)n3CCCCN)c[nH]c12 |
|  |  | 7.24 | 6.80 |  |  |  | NCCCCn1c(SCCc2c[nH]c3ccccc23)nnc1-c1cc2ccccc2s1 |
|  |  | 6.39 | 6.82 |  |  |  | NCCCCn1c(SCCc2c[nH]c3ccccc23)nnc1-c1cccc2ccccc12 |
|  |  | 7.15 | 6.21 |  |  |  | NCCCCCn1c(SCCc2c[nH]c3ccccc23)nnc1-c1ccc2ccccc2c1 |
|  |  | 8.11 | 7.92 |  |  |  | NCCCCn1c(SCCc2c[nH]c3ccccc23)nnc1-c1ccc2cc(F)ccc2n1 |
|  |  | 7.59 | 6.37 |  |  |  | CCc1ccc(-c2nnc(SCCc3c[nH]c4ccccc34)n2CCCCN)cc1 |
|  |  | 7.18 | 6.19 |  |  |  | NCCCn1c(SCCc2c[nH]c3ccccc23)nnc1-c1ccc2ccccc2c1 |
